# Tests used:
# Type in all cases: cell-based
# E. coli DH5α = assay: Antibacterial activity: MIC and growth curve against E. coli DH5α in 96-well plate; conditions: minimal inhibitory concentration against E. coli DH5α; 96-well plate, 5×10^5 CFU/mL, 37° C., judged after 8 h
# How it was run: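 Log-phase bacteria (OD600 ~0.5) resuspended in LB at 5×10^5 CFU/mL, exposed to recombinant protein at 50, 25, 12.5 μg/mL final in triplicate, 37 °C shaking at 175 rpm. OD600 read every 30 min; MIC is lowest concentration showing no growth.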
# E. coli BL21 = assay: MIC against Gram-negative bacteria: E. coli BL21; conditions: 5×10^5 CFU/mL
# How it was run: (§1)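 Purified recombinant human EGF domain proteins are tested by broth dilution in LB against a 5×10^5 CFU/mL inoculum, with two-fold serial dilutions run in triplicate. Plates are incubated at 37° C with shaking, and the MIC is read as the lowest protein concentration without growth.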
# Pseudomonas aeruginosa = assay: MIC against Gram-negative bacteria: Pseudomonas aeruginosa; conditions: 5×10^5 CFU/mL
# How it was run: as §1
# Klebsiella pneumonia = assay: MIC against Gram-negative bacteria: Klebsiella pneumonia; conditions: 5×10^5 CFU/mL
# How it was run: as §1
# Enterobacter cloacae = assay: MIC against Gram-negative bacteria: Enterobacter cloacae; conditions: 5×10^5 CFU/mL
# How it was run: as §1
# Aeromonas hydrophila = assay: MIC against Gram-negative bacteria: Aeromonas hydrophila; conditions: 5×10^5 CFU/mL
# How it was run: as §1
# Citrobacter diversus = assay: MIC against Gram-negative bacteria: Citrobacter diversus; conditions: 5×10^5 CFU/mL
# How it was run: as §1
# Moraxella catarrhalis = assay: MIC against Gram-negative bacteria: Moraxella catarrhalis; conditions: 5×10^5 CFU/mL
# How it was run: as §1
# Proteus mirabilis = assay: MIC against Gram-negative bacteria: Proteus mirabilis; conditions: 5×10^5 CFU/mL
# How it was run: as §1
# Proteus vulgaris = assay: MIC against Gram-negative bacteria: Proteus vulgaris; conditions: 5×10^5 CFU/mL
# How it was run: as §1
# Serratia marcescens = assay: MIC against Gram-negative bacteria: Serratia marcescens; conditions: 5×10^5 CFU/mL
# How it was run: as §1
# [1] = Pseudomonas aeruginosa, 96-well plate, 37° C., 10 h
# [2] = Klebsiella pneumonia, 96-well plate, 37° C., 10 h
# [3] = Enterobacter cloacae, 96-well plate, 37° C., 10 h
# [4] = Aeromonas hydrophila, 96-well plate, 37° C., 10 h
# [5] = Citrobacter diversus, 96-well plate, 37° C., 10 h
# [6] = Moraxella catarrhalis, 96-well plate, 37° C., 10 h
# [7] = Proteus mirabilis, 96-well plate, 37° C., 10 h
# [8] = Proteus vulgaris, 96-well plate, 37° C., 10 h
# [9] = Serratia marcescens, 96-well plate, 37° C., 10 h
# [10] = P. aeruginosa, 10 h cultivation at 37° C.
# [11] = K. pneumonia, 10 h cultivation at 37° C.
# [12] = E. cloacae, 10 h cultivation at 37° C.
# [13] = A. hydrophila, 10 h cultivation at 37° C.
# [14] = C. diversus, 10 h cultivation at 37° C.
# [15] = M. catarrhalis, 10 h cultivation at 37° C.
# [16] = P. mirabilis, 10 h cultivation at 37° C.
# [17] = P. vulgaris, 10 h cultivation at 37° C.
# [18] = S. marcescens, 10 h cultivation at 37° C.
# [19] = 10 h cultivation at 37° C., two-fold serial dilution
substance,measurement,setting,value
PRT45 (SINSCPNNCSGHGKCTTSVSVPSQVYCECDKYWKGEACD; listed as Homo sapiens),MIC,E. coli DH5α,50 µg/mL
same,MIC (μg/mL) E. coli BL21,"E. coli BL21; 96-well plate, 37° C., 10 h",25 µg/mL
same,MIC (μg/mL) P. aeruginosa,Pseudomonas aeruginosa; [1],12.5 µg/mL
same,MIC (μg/mL) K. pneumonia,Klebsiella pneumonia; [2],25 µg/mL
same,MIC (μg/mL) E. cloacae,Enterobacter cloacae; [3],50 µg/mL
same,MIC (μg/mL) A. hydrophila,Aeromonas hydrophila; [4],25 µg/mL
same,MIC (μg/mL) C. diversus,Citrobacter diversus; [5],12.5 µg/mL
same,MIC (μg/mL) M. catarrhalis,Moraxella catarrhalis; [6],25 µg/mL
same,MIC (μg/mL) P. mirabilis,Proteus mirabilis; [7],50 µg/mL
same,MIC (μg/mL) P. vulgaris,Proteus vulgaris; [8],12.5 µg/mL
same,MIC (μg/mL) S. marcescens,Serratia marcescens; [9],50 µg/mL
PRT1285 (NQDDCRDHRCQNGAQCMDEVNSYSCLCAEGYSGQLCE; listed as Homo sapiens),MIC,E. coli DH5α,12.5 µg/mL
same,MIC against E. coli BL21,"E. coli BL21; 96-well plate, 37° C., 10 h",12.5 µg/mL
same,MIC against P. aeruginosa,Pseudomonas aeruginosa; [1],12.5 µg/mL
same,MIC against K. pneumonia,Klebsiella pneumonia; [2],100 µg/mL
same,MIC against E. cloacae,Enterobacter cloacae; [3],12.5 µg/mL
same,MIC against A. hydrophila,Aeromonas hydrophila; [4],25 µg/mL
same,MIC against C. diversus,Citrobacter diversus; [5],12.5 µg/mL
same,MIC against M. catarrhalis,Moraxella catarrhalis; [6],25 µg/mL
same,MIC against P. mirabilis,Proteus mirabilis; [7],50 µg/mL
same,MIC against P. vulgaris,Proteus vulgaris; [8],12.5 µg/mL
same,MIC against S. marcescens,Serratia marcescens; [9],50 µg/mL
PRT1383 (GTRSCPWDCGEGGRCVDGRCVCWPGYTGEDC; listed as Homo sapiens),MIC,E. coli DH5α,12.5 µg/mL
same,MIC against E. coli BL21,E. coli BL21; 10 h cultivation at 37° C.,12.5 µg/mL
same,MIC against P. aeruginosa,"Pseudomonas aeruginosa; Pseudomonas aeruginosa, 10 h cultivation at 37° C.",12.5 µg/mL
same,MIC against K. pneumonia,"Klebsiella pneumonia; Klebsiella pneumonia, 10 h cultivation at 37° C.",25 µg/mL
same,MIC against E. cloacae,"Enterobacter cloacae; Enterobacter cloacae, 10 h cultivation at 37° C.",12.5 µg/mL
same,MIC against A. hydrophila,"Aeromonas hydrophila; Aeromonas hydrophila, 10 h cultivation at 37° C.",50 µg/mL
same,MIC against C. diversus,"Citrobacter diversus; Citrobacter diversus, 10 h cultivation at 37° C.",25 µg/mL
same,MIC against M. catarrhalis,"Moraxella catarrhalis; Moraxella catarrhalis, 10 h cultivation at 37° C.",12.5 µg/mL
same,MIC against P. mirabilis,"Proteus mirabilis; Proteus mirabilis, 10 h cultivation at 37° C.",50 µg/mL
same,MIC against P. vulgaris,"Proteus vulgaris; Proteus vulgaris, 10 h cultivation at 37° C.",12.5 µg/mL
same,MIC against S. marcescens,"Serratia marcescens; Serratia marcescens, 10 h cultivation at 37° C.",50 µg/mL
PRT804 (HGAHCELRCPCQNGGTCHHITGECACPPGWTGAVCA; listed as Homo sapiens),MIC,E. coli DH5α,12.5 µg/mL
same,MIC (μg/mL) E. coli BL21,E. coli BL21; 10 h cultivation at 37° C.,50 µg/mL
same,MIC (μg/mL) P. aeruginosa,Pseudomonas aeruginosa; [10],12.5 µg/mL
same,MIC (μg/mL) K. pneumonia,Klebsiella pneumonia; [11],50 µg/mL
same,MIC (μg/mL) E. cloacae,Enterobacter cloacae; [12],12.5 µg/mL
same,MIC (μg/mL) A. hydrophila,Aeromonas hydrophila; [13],12.5 µg/mL
same,MIC (μg/mL) C. diversus,Citrobacter diversus; [14],12.5 µg/mL
same,MIC (μg/mL) M. catarrhalis,Moraxella catarrhalis; [15],50 µg/mL
same,MIC (μg/mL) P. mirabilis,Proteus mirabilis; [16],12.5 µg/mL
same,MIC (μg/mL) P. vulgaris,Proteus vulgaris; [17],25 µg/mL
same,MIC (μg/mL) S. marcescens,Serratia marcescens; [18],50 µg/mL
PRT853 (DLNECGLKPRPCKHRCMNTYGSYKCYCLNGYMLMPDGSCS; listed as Homo sapiens),MIC,E. coli DH5α,25 µg/mL
same,MIC (μg/mL) E. coli BL21,E. coli BL21; 10 h cultivation at 37° C.,12.5 µg/mL
same,MIC (μg/mL) P. aeruginosa,Pseudomonas aeruginosa; [10],25 µg/mL
same,MIC (μg/mL) K. pneumonia,Klebsiella pneumonia; [11],50 µg/mL
same,MIC (μg/mL) E. cloacae,Enterobacter cloacae; [12],25 µg/mL
same,MIC (μg/mL) A. hydrophila,Aeromonas hydrophila; [13],12.5 µg/mL
same,MIC (μg/mL) C. diversus,Citrobacter diversus; [14],25 µg/mL
same,MIC (μg/mL) M. catarrhalis,Moraxella catarrhalis; [15],50 µg/mL
same,MIC (μg/mL) P. mirabilis,Proteus mirabilis; [16],25 µg/mL
same,MIC (μg/mL) P. vulgaris,Proteus vulgaris; [17],25 µg/mL
same,MIC (μg/mL) S. marcescens,Serratia marcescens; [18],12.5 µg/mL
PRT1132 (DEHICTTQSPCQNGGQCMYDGGGEYHCVCLPGFHGRDCE; listed as Homo sapiens),MIC,E. coli DH5α,50 µg/mL
same,MIC E. coli BL21,E. coli BL21; [19],12.5 µg/mL
same,MIC P. aeruginosa,Pseudomonas aeruginosa; [19],50 µg/mL
same,MIC K. pneumonia,Klebsiella pneumonia; [19],12.5 µg/mL
same,MIC E. cloacae,Enterobacter cloacae; [19],50 µg/mL
same,MIC A. hydrophila,Aeromonas hydrophila; [19],12.5 µg/mL
same,MIC C. diversus,Citrobacter diversus; [19],50 µg/mL
same,MIC M. catarrhalis,Moraxella catarrhalis; [19],12.5 µg/mL
same,MIC P. mirabilis,Proteus mirabilis; [19],25 µg/mL
same,MIC P. vulgaris,Proteus vulgaris; [19],50 µg/mL
same,MIC S. marcescens,Serratia marcescens; [19],25 µg/mL
PRT1160 (DTEDCKSASCKNGTTSTHLRGYFFRKCVPGFKGTQCE; listed as Homo sapiens),MIC,E. coli DH5α,12.5 µg/mL
same,MIC E. coli BL21,E. coli BL21; [19],25 µg/mL
same,MIC P. aeruginosa,Pseudomonas aeruginosa; [19],12.5 µg/mL
same,MIC K. pneumonia,Klebsiella pneumonia; [19],25 µg/mL
same,MIC E. cloacae,Enterobacter cloacae; [19],12.5 µg/mL
same,MIC A. hydrophila,Aeromonas hydrophila; [19],12.5 µg/mL
same,MIC C. diversus,Citrobacter diversus; [19],25 µg/mL
same,MIC M. catarrhalis,Moraxella catarrhalis; [19],12.5 µg/mL
same,MIC P. mirabilis,Proteus mirabilis; [19],25 µg/mL
same,MIC P. vulgaris,Proteus vulgaris; [19],12.5 µg/mL
same,MIC S. marcescens,Serratia marcescens; [19],25 µg/mL
PRT13 (PARSCAEEPCGAGTCKETEGHVICLCPPGYTGEHCN; listed as Homo sapiens),MIC,E. coli DH5α,25 µg/mL
same,MIC (μg/mL) E. coli BL21,"E. coli BL21; 96-well plate, 37° C., 10 h",12.5 µg/mL
same,MIC (μg/mL) P. aeruginosa,Pseudomonas aeruginosa; [1],12.5 µg/mL
same,MIC (μg/mL) K. pneumonia,Klebsiella pneumonia; [2],25 µg/mL
same,MIC (μg/mL) E. cloacae,Enterobacter cloacae; [3],12.5 µg/mL
same,MIC (μg/mL) A. hydrophila,Aeromonas hydrophila; [4],12.5 µg/mL
same,MIC (μg/mL) C. diversus,Citrobacter diversus; [5],25 µg/mL
same,MIC (μg/mL) M. catarrhalis,Moraxella catarrhalis; [6],12.5 µg/mL
same,MIC (μg/mL) P. mirabilis,Proteus mirabilis; [7],50 µg/mL
same,MIC (μg/mL) P. vulgaris,Proteus vulgaris; [8],25 µg/mL
same,MIC (μg/mL) S. marcescens,Serratia marcescens; [9],12.5 µg/mL
PRT607 (CDCHPEGSLSLQCKDDGRCECREGFVGNRCDQCEENYFYNRSWPGCQE; listed as Homo sapiens),MIC,E. coli DH5α,50 µg/mL
same,MIC E. coli BL21,"E. coli BL21; 96-well plate, 37° C., 10 h",25 µg/mL
same,MIC P. aeruginosa,"Pseudomonas aeruginosa; 96-well plate, 37° C., 10 h",12.5 µg/mL
same,MIC K. pneumonia,"Klebsiella pneumonia; 96-well plate, 37° C., 10 h",25 µg/mL
same,MIC E. cloacae,"Enterobacter cloacae; 96-well plate, 37° C., 10 h",50 µg/mL
same,MIC A. hydrophila,"Aeromonas hydrophila; 96-well plate, 37° C., 10 h",12.5 µg/mL
same,MIC C. diversus,"Citrobacter diversus; 96-well plate, 37° C., 10 h",50 µg/mL
same,MIC M. catarrhalis,"Moraxella catarrhalis; 96-well plate, 37° C., 10 h",12.5 µg/mL
same,MIC P. mirabilis,"Proteus mirabilis; 96-well plate, 37° C., 10 h",50 µg/mL
same,MIC P. vulgaris,"Proteus vulgaris; 96-well plate, 37° C., 10 h",12.5 µg/mL
same,MIC S. marcescens,"Serratia marcescens; 96-well plate, 37° C., 10 h",50 µg/mL
PRT717 (DLNECLVFGTCSHQCINVEGSYKCVCDQNFQERNNTCI; listed as Homo sapiens),MIC,E. coli DH5α,50 µg/mL
same,MIC E. coli BL21,"E. coli BL21; 96-well plate, 37° C., 10 h",12.5 µg/mL
same,MIC P. aeruginosa,"Pseudomonas aeruginosa; 96-well plate, 37° C., 10 h",50 µg/mL
same,MIC K. pneumonia,"Klebsiella pneumonia; 96-well plate, 37° C., 10 h",12.5 µg/mL
same,MIC E. cloacae,"Enterobacter cloacae; 96-well plate, 37° C., 10 h",50 µg/mL
same,MIC A. hydrophila,"Aeromonas hydrophila; 96-well plate, 37° C., 10 h",12.5 µg/mL
same,MIC C. diversus,"Citrobacter diversus; 96-well plate, 37° C., 10 h",25 µg/mL
same,MIC M. catarrhalis,"Moraxella catarrhalis; 96-well plate, 37° C., 10 h",50 µg/mL
same,MIC P. mirabilis,"Proteus mirabilis; 96-well plate, 37° C., 10 h",25 µg/mL
same,MIC P. vulgaris,"Proteus vulgaris; 96-well plate, 37° C., 10 h",12.5 µg/mL
same,MIC S. marcescens,"Serratia marcescens; 96-well plate, 37° C., 10 h",50 µg/mL
